Data set [1] in a line: Rat liver microsomal stability. The class given is in vitro ADME. The conditions noted are these: SD, rat, liver microsomes, read-out: Rat_SD/Microsomes t1/2 (m). As to the method: The rat liver microsomal stability, parallel artificial membrane permeability assay (PAMPA), and aqueous kinetic solubility assay in phosphate-buffered saline (PBS) buffer were performed as described in the indicated references.
A general note: Liver microsomes are a subcellular fraction often used to study metabolism.

The target of another data set is T1, NOX3 (Homo sapiens, UniProt Q9HBY0).
T1 construct: expressed in transfected cells; host or cells: Expi293 (human embryonic kidney) cells, transient transfection
T1 sequence (Q9HBY0 1-568): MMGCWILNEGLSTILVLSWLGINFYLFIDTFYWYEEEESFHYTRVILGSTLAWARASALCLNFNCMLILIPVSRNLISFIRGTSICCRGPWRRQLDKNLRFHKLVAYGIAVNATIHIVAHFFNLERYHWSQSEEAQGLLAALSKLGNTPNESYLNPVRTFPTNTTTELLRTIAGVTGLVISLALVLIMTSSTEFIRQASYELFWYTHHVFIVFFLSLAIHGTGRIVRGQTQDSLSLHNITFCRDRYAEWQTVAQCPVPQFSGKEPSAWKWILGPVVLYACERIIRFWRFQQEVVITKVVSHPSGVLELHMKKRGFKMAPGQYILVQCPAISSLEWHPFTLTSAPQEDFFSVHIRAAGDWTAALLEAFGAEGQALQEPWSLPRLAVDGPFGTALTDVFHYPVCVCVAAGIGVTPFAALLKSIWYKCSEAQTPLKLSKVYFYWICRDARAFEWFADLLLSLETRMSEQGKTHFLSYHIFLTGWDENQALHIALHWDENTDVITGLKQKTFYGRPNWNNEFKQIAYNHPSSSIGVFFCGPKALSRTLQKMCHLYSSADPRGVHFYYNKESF
T1 sequence (P13498 2-195 partner limits assumed): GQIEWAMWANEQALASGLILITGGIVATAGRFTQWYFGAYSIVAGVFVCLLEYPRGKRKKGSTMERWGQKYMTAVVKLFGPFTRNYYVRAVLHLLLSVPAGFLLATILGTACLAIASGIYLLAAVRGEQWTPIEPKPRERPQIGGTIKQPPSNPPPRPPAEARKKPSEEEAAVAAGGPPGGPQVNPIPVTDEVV
In words: Expi293 whole cell assay, NOX3 overexpression. In kind it is cell-based. To be noted: doses 100x higher than GSK2795039. As to the method:
(§1) Given concerns about previous assays for specific NOX family members we here report the first use of the Expi293 Expression System (Thermo Scientific) to overexpress NOX1, 2, 3, 4, and 5 in excess of any endogenous NOX proteins present in these cells. Transfections were performed following the manufacturer's instructions using the plasmids for each NOX as described in Supplemental Table 2 except that the enhancer solution provided with the Expi293 system was not used because it promoted enzyme activation.
(§2) After the times indicated in Supplemental Table 2, cells were washed and 50,000 added per well of a white 96-well plate (Greiner) along with 50 μM Luminol and 2.5 U horseradish peroxidase/mL in a volume of 90 μl for NOX1, NOX2, and NOX5. Inhibitors or vehicle controls were added and cells were incubated for 20 min at 37 °C prior to activation with the indicated stimuli. For NOX3 and NOX4 (constitutively active), cells were incubated with inhibitor or vehicle control prior to the addition of luminol and HRP. Chemiluminescence was measured every 2 min for 1 s per well at 37 °C in a Varioscan Multimode reader. AUC data were analyzed using GraphPad Prism using non-linear regression analysis after expressing relative to control alone (maximum ROS production).

In a further data set the target is T2, NOX4 (Homo sapiens, UniProt Q9NPH5).
T2 construct: expressed in transfected cells; host or cells: Expi293 (human embryonic kidney) cells, transient transfection, 48 hours
T2 sequence (Q9NPH5 1-578): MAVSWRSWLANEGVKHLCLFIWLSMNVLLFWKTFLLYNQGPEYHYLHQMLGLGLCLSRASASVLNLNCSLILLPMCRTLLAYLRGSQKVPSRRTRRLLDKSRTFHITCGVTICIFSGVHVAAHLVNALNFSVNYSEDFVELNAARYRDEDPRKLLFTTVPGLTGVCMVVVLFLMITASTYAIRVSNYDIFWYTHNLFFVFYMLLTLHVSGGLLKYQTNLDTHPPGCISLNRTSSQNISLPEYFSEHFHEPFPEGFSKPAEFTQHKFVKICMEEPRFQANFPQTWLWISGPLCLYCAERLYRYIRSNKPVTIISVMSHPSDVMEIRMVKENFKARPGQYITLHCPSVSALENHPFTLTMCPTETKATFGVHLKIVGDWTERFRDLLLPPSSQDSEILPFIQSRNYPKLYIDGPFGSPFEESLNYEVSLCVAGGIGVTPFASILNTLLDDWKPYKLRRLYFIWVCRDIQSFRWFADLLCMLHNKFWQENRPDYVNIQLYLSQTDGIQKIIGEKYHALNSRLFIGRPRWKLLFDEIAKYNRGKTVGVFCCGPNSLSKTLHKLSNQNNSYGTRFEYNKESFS
T2 sequence (P13498 2-195 partner limits assumed): T1 sequence (P13498 2-195 partner limits assumed)
Nature of the data set: Expi293 whole cell assay, NOX4 overexpression. The conditions noted are these: doses 100x higher than GSK2795039. The class given is cell-based. The protocol:
as §1, §2

A further data set concerns the target T3, NOX2 (Homo sapiens, UniProt P04839).
T3 sequence (P04839 2-570 limits assumed): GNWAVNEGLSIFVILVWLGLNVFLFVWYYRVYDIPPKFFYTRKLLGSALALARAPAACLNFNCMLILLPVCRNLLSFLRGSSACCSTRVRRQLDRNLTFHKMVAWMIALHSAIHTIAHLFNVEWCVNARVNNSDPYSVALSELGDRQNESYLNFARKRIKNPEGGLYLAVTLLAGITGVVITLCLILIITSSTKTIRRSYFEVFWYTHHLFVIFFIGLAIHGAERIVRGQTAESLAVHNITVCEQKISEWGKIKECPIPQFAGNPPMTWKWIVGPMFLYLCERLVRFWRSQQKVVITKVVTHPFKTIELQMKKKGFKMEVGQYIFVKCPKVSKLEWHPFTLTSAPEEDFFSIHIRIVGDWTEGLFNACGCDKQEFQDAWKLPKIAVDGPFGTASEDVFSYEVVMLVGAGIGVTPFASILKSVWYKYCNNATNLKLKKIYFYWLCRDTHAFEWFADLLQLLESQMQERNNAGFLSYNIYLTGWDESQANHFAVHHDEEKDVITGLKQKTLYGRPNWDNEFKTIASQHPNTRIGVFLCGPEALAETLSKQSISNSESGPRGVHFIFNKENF
T3 sequence (P13498 2-195 partner limits assumed): T1 sequence (P13498 2-195 partner limits assumed)
Nature of the data set: NOX2 activity in primary human granulocytes (PMN), luminol chemiluminescence. The class given is cell-based. Set-up: When tested against NOX2 in primary human neutrophils; endogenous in cells; host or cells: primary human granulocytes (PMN) from donor blood. The protocol:
Human blood was obtained after informed consent by the Department of Transfusion Medicine (NIH Clinical Center) and provided as de-identified specimens. Human granulocytes were isolated using Percoll density fractionation as described and NOX2 activity was assessed in white polypropylene flat bottom 96 well plates following 15 min of preincubation at 37 °C with compounds or vehicle controls using 50 μM luminol as a chemiluminescence enhancer in an assay volume of 100 μl RPMI1640 with 1.1 × 10^5 cells/well in Varioskan Lux luminometer for 30 cycles of 1 s per well (approximately 1 h).

As usually defined, the IC50 is the concentration that gives 50% inhibition.

Where two headings read alike, the source gives them in different places.

As to `Cn1ccc(S(=O)(=O)Nc2ccnc3c2c(-c2ccc4ccn(C)c4c2)cn3C2CC2)n1` [NCATS-SM7270, N-(1-cyclopropyl-3-(1-methyl-1H-indol-6-yl)-1H-pyrrolo [2,3-b]pyridin-4-yl)-1-methyl-1H-pyrazole-3-sulfonamide], in data set [1], the half-life stood at 3.7 min. For the same molecule, the “activity against NOX3” value at NOX3 is on record as “no detectable activity”. For the same molecule, at NOX4, the “activity against NOX4” value is given as “no detectable activity”. For the same molecule, the IC50 on NOX2 (mean of 6 donors ± S.D., read-out: IC50 against NOX2 in primary human neutrophils) was 4.09 ± 1 µM; at NOX2 (mean ± SD, n in cell, read-out: NOX-2 IC50 from PMN), 2.15 µM.
